Test results reported in paper PMC5786788, “Antimicrobial Octapeptin C4 Analogues Active against Cryptococcus Species” (Antimicrobial Agents and Chemotherapy, 2018).
≈ marks a conversion by molar mass, not a printed value. Like-named read-outs stand apart in the source and are kept apart here.

Columns and labels:
[1] = system: C. neoformans var. grubii; assay: microbe, parasite or virus in culture
Procedure: The MICs of the yeast strains for PMB, PME, and octapeptin C4 and its derivatives were determined in accordance with CLSI M27-A2 guidelines using YNB (Becton Dickinson, USA) medium supplemented with 10 mM ammonium sulfate and 2% glucose, a final inoculum concentration of 1.5 × 10^3 to 2.0 × 10^3 cells/ml, and incubation at 35°C for 72 h ([39]). […] The MICs for PMB, PME, and octapeptin C4 for A. fumigatus were determined in accordance with the CLSI M38-A2 guidelines ([40]) using synthetic RPMI 1640 medium (with glutamine, without bicarbonate and with phenol red; Life Technologies, USA). The final inoculum concentration was 0.4 × 10^4 to 5 × 10^4 cells/ml, with incubation at 35°C for 48 h. […] All assays were completed in triplicate. Fluconazole was used as a positive control where the MIC was determined at both 50% growth (in accordance with CLSI M27-A2 guidelines) and when there was a “no visible growth” reading. […]

[2] = system: C. neoformans var. gattii; assay: microbe, parasite or virus in culture; details: Cryptococcus neoformans
Procedure: The MICs of the yeast strains for PMB, PME, and octapeptin C4 and its derivatives were determined in accordance with CLSI M27-A2 guidelines using YNB (Becton Dickinson, USA) medium supplemented with 10 mM ammonium sulfate and 2% glucose, a final inoculum concentration of 1.5 × 10^3 to 2.0 × 10^3 cells/ml, and incubation at 35°C for 72 h ([39]). […] The MICs for PMB, PME, and octapeptin C4 for A. fumigatus were determined in accordance with the CLSI M38-A2 guidelines ([40]) using synthetic RPMI 1640 medium (with glutamine, without bicarbonate and with phenol red; Life Technologies, USA). The final inoculum concentration was 0.4 × 10^4 to 5 × 10^4 cells/ml, with incubation at 35°C for 48 h. […] All assays were completed in triplicate. Fluconazole was used as a positive control where the MIC was determined at both 50% growth (in accordance with CLSI M27-A2 guidelines) and when there was a “no visible growth” reading.

OC(Cn1cncn1)(Cn1cncn1)c1ccc(F)cc1F [Fluconazole, fluconazole]
MIC ([1]; Cryptococcus neoformans, read-out: MIC-2, strain 486 (USA), 50% fungal growth): 12.5 µg/mL (≈ 40.8 µM)
MIC ([1]; Cryptococcus neoformans, read-out: MIC-2, strain 488 (AIDS+, pre-HAART USA), 50% fungal growth): 12.5 µg/mL (≈ 40.8 µM)
MIC ([1]; Cryptococcus neoformans, read-out: MIC-2, strain 490 (USA), 50% fungal growth): 6.25 µg/mL (≈ 20.4 µM)
MIC ([1]; Cryptococcus neoformans, read-out: MIC-2, strain 496 (USA), 50% fungal growth): 6.25 µg/mL (≈ 20.4 µM)
MIC ([1]; Cryptococcus neoformans, read-out: MIC-2, strain 500 (USA), 50% fungal growth): 6.5 µg/mL (≈ 21.2 µM)
MIC ([1]; Cryptococcus neoformans, read-out: MIC-2, strain 502 (ARR3+ USA), 50% fungal growth): 6.5 µg/mL (≈ 21.2 µM)
MIC ([1]; Cryptococcus neoformans, read-out: MIC-2, strain 505 (India), 50% fungal growth): 6.25 µg/mL (≈ 20.4 µM)
MIC ([1]; Cryptococcus neoformans, read-out: MIC-2, strain 507 (India), 50% fungal growth): 6.25 µg/mL (≈ 20.4 µM)
MIC ([1]; Cryptococcus neoformans, read-out: MIC-2, strain 510 (VNII India), 50% fungal growth): 1.56 µg/mL (≈ 5.09 µM)
MIC ([1]; Cryptococcus neoformans, read-out: MIC-2, strain 512 (India), 50% fungal growth): 6.25 µg/mL (≈ 20.4 µM)
MIC ([1]; Cryptococcus neoformans, read-out: MIC-2, strain 516 (India), 50% fungal growth): 6.25 µg/mL (≈ 20.4 µM)
MIC ([1]; Cryptococcus neoformans, read-out: MIC-2, strain 518 (VNI India), 50% fungal growth): 6.25 µg/mL (≈ 20.4 µM)
MIC ([1]; Cryptococcus neoformans, read-out: MIC-2, strain 522 (India), 50% fungal growth): 6.25 µg/mL (≈ 20.4 µM)
MIC ([1]; Cryptococcus neoformans, read-out: MIC-2, strain 525 (India), 50% fungal growth): 12.5 µg/mL (≈ 40.8 µM)
MIC ([1]; Cryptococcus neoformans, read-out: MIC-2, strain 1188 (Japan lung), 50% fungal growth): 3.13 µg/mL (≈ 10.2 µM)
MIC ([1]; Cryptococcus neoformans, read-out: MIC-2, strain 1194 (Italy), 50% fungal growth): 1.56 µg/mL (≈ 5.09 µM)
MIC ([1]; Cryptococcus neoformans, read-out: MIC-2, strain 1196 (Botswana CSF/AIDS), 50% fungal growth): 12.5 µg/mL (≈ 40.8 µM)
MIC ([1]; Cryptococcus neoformans, read-out: MIC-2, strain 1197 (Botswana CSF/AIDS), 50% fungal growth): 3.13 µg/mL (≈ 10.2 µM)
MIC ([1]; Cryptococcus neoformans, read-out: MIC-2, strain 1199 (Uganda CSF/HIV+ VNII), 50% fungal growth): 3.13 µg/mL (≈ 10.2 µM)
MIC ([1]; Cryptococcus neoformans, read-out: MIC-2, strain H99O (lab strain), 50% fungal growth): 6.25 µg/mL (≈ 20.4 µM)
MIC ([1]; Cryptococcus neoformans, read-out: MIC-2, strain H99 XL (lab strain), 50% fungal growth): 3.13 µg/mL (≈ 10.2 µM)
MIC ([1]; Cryptococcus neoformans, read-out: MIC-2, strain H99 stud (lab strain), 50% fungal growth): 3.13 µg/mL (≈ 10.2 µM)
MIC ([1]; Cryptococcus neoformans, strain 486 (USA), no visible growth): 25 µg/mL (≈ 81.6 µM)
MIC ([1]; Cryptococcus neoformans, strain 488 (AIDS+, pre-HAART USA), no visible growth): 25 µg/mL (≈ 81.6 µM)
MIC ([1]; Cryptococcus neoformans, strain 490 (USA), no visible growth): 12.5 µg/mL (≈ 40.8 µM)
MIC ([1]; Cryptococcus neoformans, strain 496 (USA), no visible growth): 12.5 µg/mL (≈ 40.8 µM)
MIC ([1]; Cryptococcus neoformans, strain 500 (USA), no visible growth): 12.5 µg/mL (≈ 40.8 µM)
MIC ([1]; Cryptococcus neoformans, strain 502 (ARR3+ USA), no visible growth): 12.5 µg/mL (≈ 40.8 µM)
MIC ([1]; Cryptococcus neoformans, strain 505 (India), no visible growth): 6.25 µg/mL (≈ 20.4 µM)
MIC ([1]; Cryptococcus neoformans, strain 507 (India), no visible growth): 12.5 µg/mL (≈ 40.8 µM)
MIC ([1]; Cryptococcus neoformans, strain 510 (VNII India), no visible growth): 3.13 µg/mL (≈ 10.2 µM)
MIC ([1]; Cryptococcus neoformans, strain 512 (India), no visible growth): 12.5 µg/mL (≈ 40.8 µM)
MIC ([1]; Cryptococcus neoformans, strain 516 (India), no visible growth): 12.5 µg/mL (≈ 40.8 µM)
MIC ([1]; Cryptococcus neoformans, strain 518 (VNI India), no visible growth): 12.5 µg/mL (≈ 40.8 µM)
MIC ([1]; Cryptococcus neoformans, strain 522 (India), no visible growth): 12.5 µg/mL (≈ 40.8 µM)
MIC ([1]; Cryptococcus neoformans, strain 525 (India), no visible growth): 25 µg/mL (≈ 81.6 µM)
MIC ([1]; Cryptococcus neoformans, strain 1188 (Japan lung), no visible growth): 12.5 µg/mL (≈ 40.8 µM)
MIC ([1]; Cryptococcus neoformans, strain 1194 (Italy), no visible growth): 6.25 µg/mL (≈ 20.4 µM)
MIC ([1]; Cryptococcus neoformans, strain 1196 (Botswana CSF/AIDS), no visible growth): 25 µg/mL (≈ 81.6 µM)
MIC ([1]; Cryptococcus neoformans, strain 1197 (Botswana CSF/AIDS), no visible growth): 12.5 µg/mL (≈ 40.8 µM)
MIC ([1]; Cryptococcus neoformans, strain 1199 (Uganda CSF/HIV+ VNII), no visible growth): 12.5 µg/mL (≈ 40.8 µM)
MIC ([1]; Cryptococcus neoformans, strain H99O (lab strain), no visible growth): 12.5 µg/mL (≈ 40.8 µM)
MIC ([1]; Cryptococcus neoformans, strain H99 XL (lab strain), no visible growth): 6.25 µg/mL (≈ 20.4 µM)
MIC ([1]; Cryptococcus neoformans, strain H99 stud (lab strain), no visible growth): 6.25 µg/mL (≈ 20.4 µM)
MIC ([1]; read-out: MIC-2, strain 1189 (USA BAL/HIV), 50% fungal growth): 12.5 µg/mL (≈ 40.8 µM)
MIC ([1]; strain 1189 (USA BAL/HIV), no visible growth): 25 µg/mL (≈ 81.6 µM)
MIC ([2]; ATCC24066, read-out: MIC-2, strain ATCC 24066 (NIH 18), 50% fungal growth): 1.56 µg/mL (≈ 5.09 µM)
MIC ([2]; ATCC24066, strain ATCC 24066 (NIH 18), no visible growth): 3.13 µg/mL (≈ 10.2 µM)
MIC ([2]; ATCC32269, read-out: MIC-2, strain ATCC 32269, 50% fungal growth): 0.78 µg/mL (≈ 2.55 µM)
MIC ([2]; ATCC32269, strain ATCC 32269, no visible growth): 1.56 µg/mL (≈ 5.09 µM)
MIC ([2]; ATCC32608, read-out: MIC-2, strain ATCC 32608 (NIH 191), 50% fungal growth): 0.39 µg/mL (≈ 1.27 µM)
MIC ([2]; ATCC32608, strain ATCC 32608 (NIH 191), no visible growth): 0.78 µg/mL (≈ 2.55 µM)
MIC ([2]; ATCC32609, read-out: MIC-2, strain ATCC 32609 (NIH444), 50% fungal growth): 3.13 µg/mL (≈ 10.2 µM)
MIC ([2]; ATCC32609, strain ATCC 32609 (NIH444), no visible growth): 6.25 µg/mL (≈ 20.4 µM)
MIC ([2]; ATCC34878, read-out: MIC-2, strain ATCC 34878, 50% fungal growth): 3.13 µg/mL (≈ 10.2 µM)
MIC ([2]; ATCC34878, strain ATCC 34878, no visible growth): 6.25 µg/mL (≈ 20.4 µM)
MIC ([2]; ATCC34882, read-out: MIC-2, strain ATCC 34882, 50% fungal growth): 1.56 µg/mL (≈ 5.09 µM)
